Data taken from paper PMC10771296, “Plectasin: from evolution to truncation, expression, and better druggability” (Frontiers in Microbiology, 2023).
Values after ≈ are worked out from the molar mass of the structure shown. Where a SMILES comes first, the peptide text is derived from it. Bridges are numbered along the chain shown (N, C = ends).

Columns and labels:
S. aureus ATCC43300 [1] = assay: pH stability read out as MIC; assay type: physicochemical, Staphylococcus aureus; details: for MIC after pH treatment: triplicates
Description: (§1) The stability of Ple-AB was assessed based on its antibacterial activity against S. aureus ATCC43300. Temperature stability was determined by incubation at 20, 40, 60, 80, and 100°C for 1 h ([Li et al., 2020]). The pH stability was determined by incubation in buffers with a pH of 2, 4, 6, 8, and 10 for 4 h ([Yang et al., 2017]). The peptides were incubated with different concentrations of metal ions, serum, artificial gastric fluid, and simulated intestinal fluid to assess their stability in the blood and intestines ([Lyu et al., 2019]). All the treatments were performed in triplicates.

S. agalactiae ATCC13813 = assay: MIC/MBC, micro broth dilution; assay type: cell-based
Description: (§2) The minimum inhibitory concentration (MIC) of the peptides was assayed using the micro broth dilution method, which is an important indicator of the antibacterial activity of the AMPs ([Liu et al., 2021]). […] The MIC was defined as the lowest concentration of ones at which no visible bacterial growth was observed. All the assays were repeated thrice.

[2] = test system: S. agalactiae CAU-FRI-2022-02; assay: MIC/MBC, micro broth dilution; assay type: cell-based
Description: as §2

[3] = test system: S. agalactiae CAU-FRI-2022-01; assay: MIC/MBC, micro broth dilution; assay type: cell-based
Description: as §2

S. epidermidis ATCC12228 = assay: MIC/MBC, micro broth dilution; assay type: cell-based
Description: as §2

S. dysgalactiae CVCC3938 = assay: MIC/MBC, micro broth dilution; assay type: cell-based
Description: as §2

S. epidermidis ATCC35984 = assay: MIC/MBC, micro broth dilution; assay type: cell-based
Description: as §2

S. aureus ATCC43300 [4] = assay: Thermal stability read out as MIC; assay type: physicochemical, Staphylococcus aureus; details: 1 h; for MIC after heat treatment: triplicates
Description: as §1

Streptococcus = assay: MIC, summary over the panel; assay type: cell-based; details: including S. agalactiae ATCC13813, S. dysgalactiae CVCC3938, S. agalactiae CAU-FRI-2022-02
Description: as §2

gram-negative bacteria = assay: MIC, summary over the panel; assay type: cell-based; details: summary of the panel
Description: as §2

S. aureus ATCC43300 [5] = assay: Stability in simulated (artificial) intestinal fluid read out as MIC; assay type: in vitro ADME, Staphylococcus aureus
Description: as §1

S. aureus ATCC43300 [6] = assay: MIC/MBC, micro broth dilution; assay type: cell-based, Staphylococcus aureus
Description: as §2

S. aureus E48 = assay: MIC/MBC, micro broth dilution; assay type: cell-based, Staphylococcus aureus
Description: as §2

S. aureus CVCC546 = assay: MIC/MBC, micro broth dilution; assay type: cell-based, Staphylococcus aureus
Description: as §2

S. aureus ATCC25923 = assay: MIC/MBC, micro broth dilution; assay type: cell-based, Staphylococcus aureus
Description: as §2

S. aureus ATCC43300 [7] = assay: Stability in simulated (artificial) gastric fluid read out as MIC; assay type: in vitro ADME, Staphylococcus aureus
Description: as §1

ICR mice [8] = assay: In vivo safety: body weight and HE histology; details: 10 mg/kg i.p. for six consecutive days
Description: (§3) Eight 6-week-old ICR mice were randomly divided into two groups and injected intraperitoneally with Ple-AB (10 mg/kg, body weight) and saline for six consecutive days. […] They were weighed daily, and blood was collected on the 7th day for hematological and biochemical analyses. Simultaneously, the heart, liver, spleen, lungs, and kidneys were collected for tissue fixation and hematoxylin–eosin (HE) staining to observe any pathological changes ([Shishkina et al., 2023]).

S. aureus ATCC43300 [9] = assay: Post-antibiotic effect; assay type: cell-based, Staphylococcus aureus; details: 2 h exposure, 1 × 10^8 CFU/mL, then diluted 1,000 times
Description: They were incubated at 37°C and 250 rpm, sampled, and coated on MHA plates for colony counting every hour. Phosphate-buffered saline (PBS) was used as a negative control, and vancomycin was used as a positive control. The calculation formula for the Post-antibiotic effect (PAE) was based on previous study ([Wu et al., 2022]).

ICR mice [10] = assay: In vivo safety: hematological indices; design: RDW-CV / MCHC: unit not given here; details: 10 mg/kg i.p. for six consecutive days, blood on 7th day
Description: as §3

[11] = micro broth dilution, 1 × 10^5 CFU/mL, repeated thrice
[12] = bovine mastitis isolate, micro broth dilution, 1 × 10^5 CFU/mL, repeated thrice

With `CC[C@H](C)[C@@H]1NC(=O)[C@H](CO)NC(=O)[C@H](CCCCN)NC(=O)[C@@H]2CSSC[C@@H](C(=O)N[C@@H](Cc3ccc(O)cc3)C(=O)O)NC(=O)[C@H](CCCCN)NC(=O)[C@@H]3CSSC[C@H](NC(=O)[C@H](CCC(N)=O)NC(=O)[C@H](CCSC)NC(=O)[C@H](CCC(=O)O)NC(=O)[C@H](CC(=O)O)NC(=O)[C@H](Cc4c[nH]c5ccccc45)NC(=O)[C@@H]4CCCN4C(=O)[C@@H](NC(=O)CNC(=O)[C@H](Cc4ccccc4)NC(=O)CN)CSSC[C@H](NC(=O)[C@H](Cc4ccc(O)cc4)NC(=O)CNC(=O)CNC(=O)[C@H](CCCCN)NC(=O)[C@H](Cc4ccc(O)cc4)NC(=O)CNC(=O)[C@H](CCCCN)NC1=O)C(=O)N[C@@H](C)C(=O)N[C@@H](CCCCN)C(=O)NCC(=O)NCC(=O)N[C@@H](Cc1ccccc1)C(=O)N[C@@H](C(C)C)C(=O)N3)C(=O)N[C@@H](Cc1c[nH]cn1)C(=O)N[C@@H](CC(N)=O)C(=O)N[C@@H](Cc1c[nH]cn1)C(=O)N2` [Ple-AB] (H-GFGCPWDEMQCHNHCKSIKGYKGGYCAKGGFVCKCY-OH; disulfide 4-26, 11-33, 15-35; N-terminus and C-terminus assumed) the “MIC after pH treatment” value (S. aureus ATCC43300 [1]; buffer pH 2, 4 h) was 16 μg/mL, the “MIC after pH treatment” value (S. aureus ATCC43300 [1]; buffer pH 4, 4 h) was 16 μg/mL and the “MIC after pH treatment” value (S. aureus ATCC43300 [1]; buffer pH 6, 4 h) was 16 μg/mL. For the same molecule, the “MIC after pH treatment” value (S. aureus ATCC43300 [1]; buffer pH 8, 4 h) was 16 μg/mL, the “MIC after pH treatment” value (S. aureus ATCC43300 [1]; buffer pH 10, 4 h) was 32 μg/mL and the “Increase of MIC after pH treatment” value (S. aureus ATCC43300 [1]; pH 10, 4 h, versus control) was “twofold”. The MBC (S. agalactiae ATCC13813; S. agalactiae ATCC13813) was 4 µg/mL (≈ 1 µM), the MIC (S. agalactiae ATCC13813; [11]) was 4 µg/mL (≈ 1 µM) and the MBC ([2]; S. agalactiae CAU-FRI-2022-02) was 4 µg/mL (≈ 1 µM). For the same molecule, the MIC [2, 12] was 2 µg/mL (≈ 0.5 µM), the MBC ([3]; S. agalactiae CAU-FRI-2022-01) was 32 µg/mL (≈ 8 µM) and the MIC [3, 12] was 4 µg/mL (≈ 1 µM). It also gave an MBC (S. epidermidis ATCC12228; S. epidermidis ATCC12228) of 8 µg/mL (≈ 2 µM), an MIC (S. epidermidis ATCC12228; [11]) of 2 µg/mL (≈ 0.5 µM) and an MBC (S. dysgalactiae CVCC3938; S. dysgalactiae CVCC3938) of 4 µg/mL (≈ 1 µM). The MIC (S. dysgalactiae CVCC3938; [11]) was 4 µg/mL (≈ 1 µM), the MBC (S. epidermidis ATCC35984; S. epidermidis ATCC35984) was 8 µg/mL (≈ 2 µM) and the MIC (S. epidermidis ATCC35984; [11]) was 4 µg/mL (≈ 1 µM). For the same molecule, the “MIC after heat treatment” value (S. aureus ATCC43300 [4]; 20°C) was 16 µg/mL (≈ 4 µM), the “MIC after heat treatment” value (S. aureus ATCC43300 [4]; 40°C) was 16 µg/mL (≈ 4 µM) and the “MIC after heat treatment” value (S. aureus ATCC43300 [4]; 60°C) was 16 µg/mL (≈ 4 µM). For the same molecule, the “MIC after heat treatment” value (S. aureus ATCC43300 [4]; 80°C) was 16 µg/mL (≈ 4 µM), the “MIC after heat treatment” value (S. aureus ATCC43300 [4]; 100°C) was 32 µg/mL (≈ 8 µM) and the “Increase of MIC after heat treatment” value (S. aureus ATCC43300 [4]; 100°C, versus control) was “twofold”. For the same molecule, the “MICs, range over Streptococcus” value (Streptococcus) was 2 to 4 µg/mL, the “Activity against gram-negative bacteria” value (gram-negative bacteria) was “inactive” and the “MIC after Artificial Intestinal Fluid” value (S. aureus ATCC43300 [5]; Artificial Intestinal Fluid (trypsin), 1 h, read-out MIC, triplicates) was 32 µg/mL (≈ 8 µM). The “Remaining share of initial activity after simulated intestinal fluids” value (S. aureus ATCC43300 [5]; simulated intestinal fluids (trypsin), 1 h (lasted for 2 h), from MIC) was “approximately 50%”, the MBC (S. aureus ATCC43300 [6]; S. aureus ATCC43300) was 32 µg/mL (≈ 8 µM) and the MIC (S. aureus ATCC43300 [6]; [11]) was 16 µg/mL (≈ 4 µM). It also gave an MIC (S. aureus ATCC43300 [6]; untreated control of the stability test, triplicates) of 16 µg/mL (≈ 4 µM), an MBC (S. aureus E48; S. aureus E48) of 16 µg/mL (≈ 4 µM) and an MIC (S. aureus E48; bovine clinical strain, micro broth dilution, 1 × 10^5 CFU/mL, repeated thrice) of 4 µg/mL (≈ 1 µM). The MBC (S. aureus CVCC546; S. aureus CVCC546) was 16 µg/mL (≈ 4 µM), the MIC (S. aureus CVCC546; [11]) was 8 µg/mL (≈ 2 µM) and the MBC (S. aureus ATCC25923; S. aureus ATCC25923) was 64 µg/mL (≈ 16 µM). The MIC (S. aureus ATCC25923; [11]) was 16 µg/mL (≈ 4 µM), the “MIC after Simulated Gastric Fluid” value (S. aureus ATCC43300 [7]; Simulated Gastric Fluid (pepsin), 1-2 h, triplicates) was 16 µg/mL (≈ 4 µM) and the “MIC after artificial gastric juice” value (S. aureus ATCC43300 [7]; artificial gastric juice (pepsin), 2 h) was 16 µg/mL (≈ 4 µM). For the same molecule, the “Histological morphology of heart, liver, spleen, lungs, kidneys (HE staining)” value (ICR mice [8]; one week after injection, vs saline) was “no differences in histological morphology”, the Body weight change (ICR mice [8]; weighed daily) was “slight tendency to lose weight on the second day after the injection” and the “PAE (post-antibiotic effect)” value (S. aureus ATCC43300 [9]; 1× MIC) was 1.15 h. For the same molecule, the “PAE (post-antibiotic effect)” value (S. aureus ATCC43300 [9]; 2× MIC) was 1.18 h, the “PAE (post-antibiotic effect)” value (S. aureus ATCC43300 [9]; 4× MIC) was 2.25 h and the BASO (ICR mice [10]) was 0.09 ± 0.027 10^9/L. For the same molecule, the BASO % (ICR mice [10]) was 1.09 ± 0.34%, the EO (ICR mice [10]) was 0.19 ± 0.106 10^9/L and the EO % (ICR mice [10]) was 2.33 ± 1.24%. For the same molecule, the HBG (ICR mice [10]) was 128 ± 12 g/L, the HCT % (ICR mice [10]) was 41.3 ± 2.4% and the LYM (ICR mice [10]) was 5.89 ± 0.585 10^9/L. It also gave an LYM % (ICR mice [10]) of 74.8 ± 3.02%, an MCH (ICR mice [10]) of 13.48 ± 0.67 pg and an MCHC (ICR mice [10]) of 32.86 ± 1.73. The MCV (ICR mice [10]) was 41.73 ± 1.17 fL, the MONO (ICR mice [10]) was 0.24 ± 0.066 10^9/L and the MONO % (ICR mice [10]) was 3 ± 0.49%. For the same molecule, the MPV (ICR mice [10]) was 6.63 ± 0.57 fL, the NEUT (ICR mice [10]) was 1.49 ± 0.354 10^9/L and the NEUT % (ICR mice [10]) was 18.78 ± 1.66%. It also gave a PCT % (ICR mice [10]) of 0.02 ± 0.01%, a PDW % (ICR mice [10]) of 15.85 ± 0.75% and a PLCR % (ICR mice [10]) of 15.35 ± 3.65%. For the same molecule, the PLT (ICR mice [10]) was 782.3 ± 48.25 10^9/L, the RBC (ICR mice [10]) was 9.44 ± 0.82 10^12/L and the RDW-CV (ICR mice [10]) was 18.58 ± 1.97. For the same molecule, the RDW-SD % (ICR mice [10]) was 44.55 ± 3.65%, the WBC (ICR mice [10]) was 7.89 ± 0.94 10^9/L and the “Whole blood cell profiles versus control group” value (ICR mice [10]) was “not significantly different”.
